Test results as given in patent US12466855B2, “Labeled oxytocin and method of manufacture and use” (TONIX PHARMA LIMITED, priority 2018, dated 2025).

Assays:
[1] = PET/MRI distribution of ^13N-oxytocin following IV administration in rats; format: in vivo; conditions: female Sprague Dawley rat, 13.3 MBq in the tail vein (IV), 30 min dynamic PET, FIG. 2
Procedure: Anesthetised rats are scanned using a microPET scanner (nanoscan microPET/IT MRI, Mediso Ltd, Budapest, Hungary). Body temperature is maintained and circulation and respiration are monitored. First, a structural T2-weighted MRI scan is obtained for attenuation correction. Subsequently, the rat is injected through the tail vein with the ^13N-oxytocin radiotracer. […] The list-mode data of the emission scans are split into a dynamic sequence of frames. The data are reconstructed per time frame employing an iterative reconstruction. Appropriate correction factors are applied producing quantitative dynamic images (matrix size (x, y, z) 93, 93, 120. Voxel size 0.4 mm. 3D Tera-Tomo reconstruction with Monte Carlo based estimation, attenuation and scatter correction). […] Sprague-Dawley rat MRI brain atlas using PMOD software (version 3.7, PMOD Technologies Ltd, Zurich, Switzerland), a commercially available software package for biomedical image quantification, to acquire data in regions of interest. The results are expressed as dimensionless standardized uptake values (SUVs): [tissue activity concentration (MBq/g)×body weight (g)/injected dose (MBq)].
In one study, female Sprague Dawley rats were housed two per cage under a 12 h light/12 h dark cycle at an average temperature of 21° C. and humidity of 55%, with ad libitum access to food and water. […]

[2] = PET/MR distribution of ^13N-oxytocin following nasal administration in rats; format: in vivo, rat; conditions: intranasal, approx. 100 μl (1-2 MBq) per nostril in 10% ethanol/90% saline, 60 min PET scan, FIG. 3
Procedure: Anesthetised rats are scanned using a microPET scanner (nanoscan microPET/IT MRI, Mediso Ltd, Budapest, Hungary). Body temperature is maintained and circulation and respiration are monitored. First, a structural T2-weighted MRI scan is obtained for attenuation correction. Subsequently, the rat is injected through the tail vein with the ^13N-oxytocin radiotracer. A list-mode protocol is used with a 60-min acquisition time. The list-mode data of the emission scans are split into a dynamic sequence of frames. The data are reconstructed per time frame employing an iterative reconstruction. Appropriate correction factors are applied producing quantitative dynamic images (matrix size (x, y, z) 93, 93, 120. Voxel size 0.4 mm. 3D Tera-Tomo reconstruction with Monte Carlo based estimation, attenuation and scatter correction). A summed PET image of each 60 min scan is co-registered to an average Sprague-Dawley rat MRI brain atlas using PMOD software (version 3.7, PMOD Technologies Ltd, Zurich, Switzerland), a commercially available software package for biomedical image quantification, to acquire data in regions of interest. The results are expressed as dimensionless standardized uptake values (SUVs): [tissue activity concentration (MBq/g)×body weight (g)/injected dose (MBq)].
The distribution of ^13N-oxytocin following nasal administration in rats is tested. […]

[3] = human patients, migraine headache pain, after administration; cited from earlier work

CC[C@H](C)[C@@H]1NC(=O)[C@H](Cc2ccc(O)cc2)NC(=O)[C@@H](N)CSSC[C@@H](C(=O)N2CCC[C@H]2C(=O)N[C@@H](CC(C)C)C(=O)NCC(N)=O)NC(=O)[C@H](CC(N)=O)NC(=O)[C@H](CCC(N)=O)NC1=O [oxytocin, Cys-Tyr-Ile-Gln-Asn-Cys-Pro-Leu-Gly]
brain uptake / CNS penetration (PET and MR scans) [1]: lack of CNS penetration | brain uptake / CNS penetration (PET/MR overlay) [2]: lack of CNS penetration | initial period before onset of significant analgesia [3]: up to 2 hours | time to maximal analgesic effect [3]: 4 h
